Laboratory results reported in ChEMBL document CHEMBL1201861, “Genomics of Drug Sensitity in Cancer screening data, Wellcome Trust Sanger Institute”.

Tests used:
Assay in all cases: cells
Details in all cases: Homo sapiens
COLO-800 = assay type: functional, cell-based
Description: SANGER: Inhibition of human COLO-800 cell growth in a cell viability assay.

COR-L88 = assay type: functional, cell-based
Description: SANGER: Inhibition of human COR-L88 cell growth in a cell viability assay.

Calu-6 = assay type: functional, cell-based
Description: SANGER: Inhibition of human Calu-6 cell growth in a cell viability assay.

DMS-114 = assay type: functional, cell-based
ES1 = assay type: functional, cell-based
Description: SANGER: Inhibition of human ES1 cell growth in a cell viability assay.

ES3 = assay type: functional, cell-based
Description: SANGER: Inhibition of human ES3 cell growth in a cell viability assay.

ES8 = assay type: functional, cell-based
Description: SANGER: Inhibition of human ES8 cell growth in a cell viability assay.

EW-1 = assay type: functional, cell-based
Description: SANGER: Inhibition of human EW-1 cell growth in a cell viability assay.

EW-18 = assay type: functional, cell-based
Description: SANGER: Inhibition of human EW-18 cell growth in a cell viability assay.

EW-24 = assay type: functional, cell-based
Description: SANGER: Inhibition of human EW-24 cell growth in a cell viability assay.

EW-3 = assay type: functional, cell-based
Description: SANGER: Inhibition of human EW-3 cell growth in a cell viability assay.

EOL1 = assay type: functional, cell-based
Description: SANGER: Inhibition of human EoL-1-cell cell growth in a cell viability assay.

GB-1 = assay type: functional, cell-based
Description: SANGER: Inhibition of human GB-1 cell growth in a cell viability assay.

GCIY = assay type: functional, cell-based
Description: SANGER: Inhibition of human GCIY cell growth in a cell viability assay.

GOTO = assay type: functional, cell-based
Description: SANGER: Inhibition of human GOTO cell growth in a cell viability assay.

HCE-4 = assay type: functional, cell-based
Description: SANGER: Inhibition of human HCE-4 cell growth in a cell viability assay.

HT-144 = assay type: functional, cell-based
Description: SANGER: Inhibition of human HT-144 cell growth in a cell viability assay.

HuTu80 = assay type: functional, cell-based, HUTU-80
Description: SANGER: Inhibition of human HUTU-80 cell growth in a cell viability assay.

IA-LM = assay type: functional, cell-based
Description: SANGER: Inhibition of human IA-LM cell growth in a cell viability assay.

IST-MEL1 = assay type: functional, cell-based
Description: SANGER: Inhibition of human IST-MEL1 cell growth in a cell viability assay.

IST-SL1 = assay type: functional, cell-based
Description: SANGER: Inhibition of human IST-SL1 cell growth in a cell viability assay.

JAR = assay type: functional, cell-based
Description: SANGER: Inhibition of human JAR cell growth in a cell viability assay.

K5 = assay type: functional, cell-based
Description: SANGER: Inhibition of human K5 cell growth in a cell viability assay.

KGN = assay type: functional, cell-based
Description: SANGER: Inhibition of human KGN cell growth in a cell viability assay.

KM12 = assay type: functional, cell-based
Description: SANGER: Inhibition of human KM12 cell growth in a cell viability assay.

KMOE-2 = assay type: functional, cell-based
Description: SANGER: Inhibition of human KMOE-2 cell growth in a cell viability assay.

KY821 = assay type: functional, cell-based
Description: SANGER: Inhibition of human KY821 cell growth in a cell viability assay.

LB2241-RCC = assay type: functional, cell-based
Description: SANGER: Inhibition of human LB2241-RCC cell growth in a cell viability assay.

LB771-HNC = assay type: functional, cell-based
Description: SANGER: Inhibition of human LB771-HNC cell growth in a cell viability assay.

LB831-BLC = assay type: functional, cell-based
Description: SANGER: Inhibition of human LB831-BLC cell growth in a cell viability assay.

LNCaP-Clone-FGC = assay type: functional, cell-based
Description: SANGER: Inhibition of human LNCaP-Clone-FGC cell growth in a cell viability assay.

LS-123 = assay type: functional, cell-based
Description: SANGER: Inhibition of human LS-123 cell growth in a cell viability assay.

LS-513 = assay type: functional, cell-based
Description: SANGER: Inhibition of human LS-513 cell growth in a cell viability assay.

MZ7-mel = assay type: functional, cell-based
Description: SANGER: Inhibition of human MZ7-mel cell growth in a cell viability assay.

NB6 = assay type: functional, cell-based
Description: SANGER: Inhibition of human NB6 cell growth in a cell viability assay.

NCI-H1155 = assay type: functional, cell-based
Description: SANGER: Inhibition of human NCI-H1155 cell growth in a cell viability assay.

NCI-H209 = assay type: functional, cell-based
Description: SANGER: Inhibition of human NCI-H209 cell growth in a cell viability assay.

NCI-H446 = assay type: functional, cell-based
Description: SANGER: Inhibition of human NCI-H446 cell growth in a cell viability assay.

NCI-H69 = assay type: functional, cell-based
Description: SANGER: Inhibition of human NCI-H69 cell growth in a cell viability assay.

SNU-5 = assay type: functional, cell-based
Description: SANGER: Inhibition of human NCI-SNU-5 cell growth in a cell viability assay.

OCI-AML2 = assay type: functional, cell-based
Description: SANGER: Inhibition of human OCI-AML2 cell growth in a cell viability assay.

OS-RC-2 = assay type: functional, cell-based
Description: SANGER: Inhibition of human OS-RC-2 cell growth in a cell viability assay.

P30-OHK = assay type: functional, cell-based
Description: SANGER: Inhibition of human P30-OHK cell growth in a cell viability assay.

QIMR-WIL = assay type: functional, cell-based
Description: SANGER: Inhibition of human QIMR-WIL cell growth in a cell viability assay.

RKO = assay type: functional, cell-based
Description: SANGER: Inhibition of human RKO cell growth in a cell viability assay.

RXF 393 = assay type: functional, cell-based
Description: SANGER: Inhibition of human RXF393 cell growth in a cell viability assay.

SBC-1 = assay type: functional, cell-based
Description: SANGER: Inhibition of human SBC-1 cell growth in a cell viability assay.

SHP77 = assay type: functional, cell-based, SHP-77
Description: SANGER: Inhibition of human SHP-77 cell growth in a cell viability assay.

SJSA-1 = assay type: functional, cell-based
Description: SANGER: Inhibition of human SJSA-1 cell growth in a cell viability assay.

SK-MEL-2 = assay type: functional, cell-based
Description: SANGER: Inhibition of human SK-MEL-2 cell growth in a cell viability assay.

SK-N-FI = assay type: functional, cell-based
Description: SANGER: Inhibition of human SK-N-FI cell growth in a cell viability assay.

SK-PN-DW = assay type: functional, cell-based
Description: SANGER: Inhibition of human SK-PN-DW cell growth in a cell viability assay.

SNU-C2B = assay type: functional, cell-based
Description: SANGER: Inhibition of human SNU-C2B cell growth in a cell viability assay.

SW872 = assay type: functional, cell-based
Description: SANGER: Inhibition of human SW872 cell growth in a cell viability assay.

A101D = assay type: functional, cell-based
Description: SANGER: Inhibition of human A101D cell growth in a cell viability assay.

A3-KAW = assay type: functional, cell-based
Description: SANGER: Inhibition of human A3-KAW cell growth in a cell viability assay.

A388 = assay type: functional, cell-based
Description: SANGER: Inhibition of human A388 cell growth in a cell viability assay.

A704 = assay type: functional, cell-based
Description: SANGER: Inhibition of human A704 cell growth in a cell viability assay.

ACN = assay type: functional, cell-based
Description: SANGER: Inhibition of human ACN cell growth in a cell viability assay.

BB30-HNC = assay type: functional, cell-based
Description: SANGER: Inhibition of human BB30-HNC cell growth in a cell viability assay.

BE-13 = assay type: functional, cell-based
Description: SANGER: Inhibition of human BE-13 cell growth in a cell viability assay.

C8166 = assay type: functional, cell-based
Description: SANGER: Inhibition of human C8166 cell growth in a cell viability assay.

TE-10 = assay type: functional, cell-based
Description: SANGER: Inhibition of human TE-10 cell growth in a cell viability assay.

TE-6 = assay type: functional, cell-based
Description: SANGER: Inhibition of human TE-6 cell growth in a cell viability assay.

CCRF-CEM = assay type: functional, cell-based
Description: SANGER: Inhibition of human CCRF-CEM cell growth in a cell viability assay.

COLO-668 = assay type: functional, cell-based
Description: SANGER: Inhibition of human COLO-668 cell growth in a cell viability assay.

## Cc1nc(Nc2ncc(C(=O)Nc3c(C)cccc3Cl)s2)cc(N2CCN(CCO)CC2)n1 [DASATINIB]
COLO-800
  IC50: > 1280 nM
COR-L88
  IC50: > 1280 nM
Calu-6
  IC50: > 1280 nM
DMS-114
  IC50: > 1280 nM
ES1
  IC50: > 1280 nM
ES3
  IC50: > 1280 nM
ES8
  IC50: > 1280 nM
EW-1
  IC50: > 1280 nM
EW-18
  IC50: > 1280 nM
EW-24
  IC50: 782 nM
EW-3
  IC50: > 1280 nM
EOL1
  IC50: < 5 nM
GB-1
  IC50: 21.6 nM
GCIY
  IC50: 96.6 nM
GOTO
  IC50: > 1280 nM
HCE-4
  IC50: 264 nM
HT-144
  IC50: 536 nM
HuTu80
  IC50: 314 nM
IA-LM
  IC50: > 1280 nM
IST-MEL1
  IC50: 135 nM
IST-SL1
  IC50: > 1280 nM
JAR
  IC50: > 1280 nM
K5
  IC50: 165 nM
KGN
  IC50: 19.4 nM
KM12
  IC50: > 1280 nM
KMOE-2
  IC50: > 1280 nM
KY821
  IC50: > 1280 nM
LB2241-RCC
  IC50: > 1280 nM
LB771-HNC
  IC50: > 1280 nM
LB831-BLC
  IC50: 46.1 nM
LNCaP-Clone-FGC
  IC50: > 1280 nM
LS-123
  IC50: 141 nM
LS-513
  IC50: > 1280 nM
MZ7-mel
  IC50: 479 nM
NB6
  IC50: > 1280 nM
NCI-H1155
  IC50: > 1280 nM
NCI-H209
  IC50: > 1280 nM
NCI-H446
  IC50: 628 nM
NCI-H69
  IC50: > 1280 nM
SNU-5
  IC50: > 1280 nM
OCI-AML2
  IC50: > 1280 nM
OS-RC-2
  IC50: 20.3 nM
P30-OHK
  IC50: > 1280 nM
QIMR-WIL
  IC50: 706 nM
RKO
  IC50: 530 nM
RXF 393
  IC50: 23.6 nM
SBC-1
  IC50: > 1280 nM
SHP77
  IC50: > 1280 nM
SJSA-1
  IC50: > 1280 nM
SK-MEL-2
  IC50: > 1280 nM
SK-N-FI
  IC50: > 1280 nM
SK-PN-DW
  IC50: > 1280 nM
SNU-C2B
  IC50: > 1280 nM
SW872
  IC50: 41.6 nM
A101D
  IC50: 1030 nM
A3-KAW
  IC50: 985 nM
A388
  IC50: 50.9 nM
A704
  IC50: 14.9 nM
ACN
  IC50: > 1280 nM
BB30-HNC
  IC50: 54.4 nM
BE-13
  IC50: > 1280 nM
C8166
  IC50: > 1280 nM
TE-10
  IC50: 63.6 nM
TE-6
  IC50: 1210 nM
CCRF-CEM
  IC50: > 1280 nM
COLO-668
  IC50: > 1280 nM

## C[C@]12O[C@H](C[C@]1(O)CO)n1c3ccccc3c3c4c(c5c6ccccc6n2c5c31)CNC4=O [LESTAURTINIB]
COLO-800
  IC50: 190 nM
COR-L88
  IC50: > 2000 nM
Calu-6
  IC50: > 2000 nM
DMS-114
  IC50: 1520 nM
ES1
  IC50: 95.3 nM
ES3
  IC50: 125 nM
ES8
  IC50: 132 nM
EW-1
  IC50: 1080 nM
EW-18
  IC50: 635 nM
EW-24
  IC50: 266 nM
EW-3
  IC50: 125 nM
EOL1
  IC50: 8.69 nM
GB-1
  IC50: 238 nM
GCIY
  IC50: > 2000 nM
GOTO
  IC50: 940 nM
HCE-4
  IC50: > 2000 nM
HT-144
  IC50: 978 nM
HuTu80
  IC50: 649 nM
IA-LM
  IC50: > 2000 nM
IST-MEL1
  IC50: 196 nM
IST-SL1
  IC50: 112 nM
JAR
  IC50: 9.94 nM
K5
  IC50: 145 nM
KGN
  IC50: 138 nM
KM12
  IC50: 37.8 nM
KMOE-2
  IC50: 617 nM
KY821
  IC50: 159 nM
LB2241-RCC
  IC50: 125 nM
LB771-HNC
  IC50: > 2000 nM
LB831-BLC
  IC50: > 2000 nM
LNCaP-Clone-FGC
  IC50: 353 nM
LS-123
  IC50: > 2000 nM
LS-513
  IC50: 1250 nM
MZ7-mel
  IC50: 603 nM
NB6
  IC50: 936 nM
NCI-H1155
  IC50: 912 nM
NCI-H209
  IC50: 36.7 nM
NCI-H446
  IC50: 1910 nM
NCI-H69
  IC50: > 2000 nM
SNU-5
  IC50: > 2000 nM
OCI-AML2
  IC50: 1070 nM
OS-RC-2
  IC50: 566 nM
P30-OHK
  IC50: 128 nM
QIMR-WIL
  IC50: 94.1 nM
RKO
  IC50: 299 nM
RXF 393
  IC50: 917 nM
SBC-1
  IC50: 60.6 nM
SHP77
  IC50: > 2000 nM
SJSA-1
  IC50: 216 nM
SK-MEL-2
  IC50: 26.6 nM
SK-N-FI
  IC50: 1100 nM
SK-PN-DW
  IC50: 394 nM
SNU-C2B
  IC50: 1120 nM
SW872
  IC50: > 2000 nM
A101D
  IC50: 67 nM
A3-KAW
  IC50: 23.9 nM
A388
  IC50: > 2000 nM
A704
  IC50: 967 nM
ACN
  IC50: 77.7 nM
BB30-HNC
  IC50: 935 nM
BE-13
  IC50: 280 nM
C8166
  IC50: > 2000 nM
TE-10
  IC50: 1480 nM
TE-6
  IC50: > 2000 nM
CCRF-CEM
  IC50: > 2000 nM
COLO-668
  IC50: > 2000 nM
